Structures are written as SMILES. Values after ≈ are worked out from the molar mass of the structure shown. Where two headings read alike, the source gives them in different places.

The IC50 is the concentration that inhibits the measured activity by half.

In experiment [1] the target is Mtb Pks13-TE domain (wild-type) (Mycobacterium tuberculosis, UniProt I6X8D2). The experiment can be described thus: biochemical. Type of experiment: biochemical. The note with it: for IC50: read-out: IC50; for loss of inhibitory activity / higher IC50 against Pks13-TE compared to the test compound: relative to test compound.
In the next experiment the test system is Mtb strain mc^27000. The experiment can be described thus: microbe, parasite or virus in culture. Type of experiment: cell-based, Mycobacterium tuberculosis.
[2] abbreviates: Mtb Pks13-TE domain, mean ± s.d. of triplicates.
Where [3] appears, read: Mtb mc^27000, liquid medium, 96-well plates, read-out: MIC.
The mark [4] stands for this setting: Mycobacterium tuberculosis, Mtb mc^27000, liquid medium, 96-well plates, read-out: MIC.

Chain of Mtb Pks13-TE domain (wild-type) (I6X8D2 1451-1733): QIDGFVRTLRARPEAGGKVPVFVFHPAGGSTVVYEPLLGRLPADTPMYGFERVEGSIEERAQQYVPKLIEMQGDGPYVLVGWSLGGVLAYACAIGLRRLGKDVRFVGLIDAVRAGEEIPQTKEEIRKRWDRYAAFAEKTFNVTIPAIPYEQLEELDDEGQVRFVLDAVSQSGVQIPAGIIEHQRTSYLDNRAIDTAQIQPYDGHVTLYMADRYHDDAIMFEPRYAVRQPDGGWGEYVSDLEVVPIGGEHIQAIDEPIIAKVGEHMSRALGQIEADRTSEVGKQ

For the compound `CCOC(=O)c1c(-c2ccccc2)oc2ccc(O)c(CC3CCCCC3)c12` [compound 16], the IC50 in experiment [1] (setting [2]) is 19.6 ± 1.4 µM; in experiment [1] (Pks13-TE, 20 μM 4-MUH), 19.6 µM. Moreover, the “loss of inhibitory activity / higher IC50 against Pks13-TE compared to the test compound” value in experiment [1] was more than 70 fold. Besides, the MIC is reported as 5.2 µM (≈ 1.97 µg/mL) in the experiment with Mtb strain mc^27000 (setting [3]) and 5.2 µM (≈ 1.97 µg/mL) with Mtb strain mc^27000 ([…], mean ± s.d. of triplicates, NI: no inhibition, read-out: MIC).

Take `CCOC(=O)c1c(-c2ccccc2)oc2cc(CN3CCCCC3)cc(OC)c12` [compound 35]: the MIC with Mtb strain mc^27000 (setting [4]) came to 40 µM (≈ 15.7 µg/mL).

For `CCOC(=O)c1c(-c2ccccc2)oc2ccc(O)c(CN(C)C)c12` [compound 109], the IC50 in experiment [1] (setting [2]) was 1.57 ± 0.15 µM; in experiment [1] (Pks13-TE, 20 μM 4-MUH), 1.57 ± 0.15 µM. Further, the “loss of inhibitory activity / higher IC50 against Pks13-TE compared to the test compound” value in experiment [1] is given as more than 6 fold. For the same compound, the “higher MIC compared to the test compound” value in the experiment on Mtb strain mc^27000 came to 3 fold. For the same compound, the “MIC” value turned out to be 7.3 ± 0.3 µM (≈ 2.48 µg/mL) in the experiment on Mtb strain mc^27000 (Mtb mc^27000, liquid medium, 96-well plates) and 7.3 ± 0.3 µM (≈ 2.48 µg/mL) against Mtb strain mc^27000 ([…], mean ± s.d. of triplicates, NI: no inhibition).

As for `CNC(=O)c1c(-c2ccc(O)cc2)oc2ccc(O)c(CCCN3CCC3)c12` [compound 202], in experiment [1] (Pks13-TE, 20 μM 4-MUH), the IC50 is 1.6 µM. In the experiment with Mtb strain mc^27000 (setting [4]), the MIC was found to be 15 µM (≈ 5.71 µg/mL).

As to `CCOC(=O)c1c(-c2ccc(O)c(F)c2)oc2ccc(O)c(CN3CCCCC3)c12` [compound 59], the IC50 in experiment [1] (Pks13-TE, 20 μM 4-MUH) was determined as 0.29 µM. The MIC with Mtb strain mc^27000 (setting [4]) was 0.3 µM (≈ 0.124 µg/mL).

Turning to `CCOC(=O)c1c(-c2ccccc2)oc2ccc(O)c(CCO)c12` [compound 106], in the experiment with Mtb strain mc^27000 (setting [4]), the MIC was more than 20 µM.

With `CNC(=O)c1c(-c2ccc(F)cc2)oc2cc(O)cc(CCN[C@H](CO)Cc3cnc[nH]3)c12` [compound 261], in experiment [1] (Pks13-TE, 20 μM 4-MUH), the IC50 is 5 µM. The MIC in the experiment on Mtb strain mc^27000 (setting [4]) worked out at 5 µM (≈ 2.26 µg/mL).

Turning to `CCOC(=O)c1c(-c2ccccc2)oc2ccc(O)c(CC(=O)N3CCCC3)c12` [compound 130], in the experiment with Mtb strain mc^27000 (setting [3]), the MIC is listed as 4.1 µM (≈ 1.61 µg/mL).

Take `CNC(=O)c1c(-c2ccc(NC(C)=O)cc2)oc2ccc(O)c(CN3CCCCC3)c12` [compound 66]: in the experiment on Mtb strain mc^27000 (setting [4]), the MIC was more than 20 µM.

Turning to `CCOC(=O)c1c(-c2ccccc2)oc2ccc(O)c(CCN3CCC(C)CC3)c12` [compound 149], the MIC in the experiment with Mtb strain mc^27000 (setting [4]) was 2.3 µM (≈ 0.937 µg/mL).

`CNC(=O)c1c(-c2ccccc2)oc2cc(O)cc(CN3CCOCC3)c12` [compound 94]: in the experiment with Mtb strain mc^27000 (setting [4]), the MIC was more than 20 µM.

Take `CNC(=O)c1c(-c2ccccc2)oc2ccc(O)c(CCCNCc3nonc3C)c12` [compound 195]: in the experiment with Mtb strain mc^27000 (setting [3]), the MIC is recorded as more than 40 µM.

On to `CCOC(=O)c1c(-c2ccccc2)oc2cc(NC(C)=O)cc(CN3CCCCC3)c12` [compound 30], for which the MIC in the experiment on Mtb strain mc^27000 (setting [4]) lay within 20 to 27 µM (≈ 8.41 to 11.4 µg/mL).

Turning to `CCOC(=O)c1c(-c2ccccc2)oc2ccc(O)c(CC(=O)NC3CCC3)c12` [compound 131], the MIC with Mtb strain mc^27000 (setting [3]) is 7.2 µM (≈ 2.83 µg/mL).

As to `CCOC(=O)c1c(-c2ccccc2)oc2ccc(O)c(CCCNCC(F)F)c12` [compound 218], the MIC in the experiment on Mtb strain mc^27000 (setting [3]) came out at 2.8 µM (≈ 1.13 µg/mL).

With `CC(C)NC(=O)c1c(-c2ccc(O)cc2)oc2ccc(O)c(CCCN3CCC3)c12` [compound 214], in the experiment with Mtb strain mc^27000 (setting [3]), the MIC was less than 0.08 µM.

Consider `CNC(=O)c1c(-c2ccccc2)oc2cc(O)cc(CS(=O)(=O)NC)c12` [compound 83], for which the MIC in the experiment on Mtb strain mc^27000 (setting [4]) was more than 20 µM.

Take `CCOC(=O)c1c(-c2ccccc2)oc2cc(Cc3ccccc3)c(O)cc12` [compound 11]: in the experiment with Mtb strain mc^27000 (setting [4]), the MIC turned out to be 28 µM (≈ 10.4 µg/mL).

In the case of `CNC(=O)c1c(-c2ccccc2)oc2ccc(O)c(CCN3CCCC3)c12` [compound 101], the MIC in the experiment on Mtb strain mc^27000 (setting [4]) came to 3.3 µM (≈ 1.2 µg/mL).

In the case of `CCOC(=O)c1c(-c2ccccc2)oc2ccc(O)c(CCNC3CCOCC3)c12` [compound 241], the IC50 in experiment [1] (Pks13-TE, 20 μM 4-MUH) is more than 20 µM.

Take `CCOC(=O)c1c(-c2ccccc2)oc2ccc(O)c(CCN[C@@H](CC(N)=O)C(=O)O)c12` [compound 246]: in experiment [1] (Pks13-TE, 20 μM 4-MUH), the IC50 stood at 20 µM.

In the case of `CNC(=O)c1c(-c2ccccc2)oc2cc(O)cc(CNCCO)c12` [compound 96], in the experiment on Mtb strain mc^27000 (setting [4]), the MIC was found to be 9 µM (≈ 3.06 µg/mL).

Regarding `CCOC(=O)c1c(-c2ccccc2)oc2ccc(O)c(CCN3CCC4(CC3)COC4)c12` [compound 267], the IC50 in experiment [1] (Pks13-TE, 20 μM 4-MUH) was more than 40 µM.

Consider `CCOC(=O)c1c(-c2ccccc2)oc2ccc(O)c(CCN3CCCOC3)c12` [compound 193], for which, in experiment [1] (Pks13-TE, 20 μM 4-MUH), the IC50 amounted to 5 µM.

On to `CNC(=O)c1c(-c2ccncc2)oc2cc(O)cc(CN3CCCCC3)c12` [compound 84], for which, in the experiment with Mtb strain mc^27000 (setting [4]), the MIC came to 6.1 µM (≈ 2.23 µg/mL).

For the compound `CCOC(=O)c1c(-c2ccccc2)oc2ccc(O)c(CCN3CCC4(COC4)C3)c12` [compound 264], the IC50 in experiment [1] (Pks13-TE, 20 μM 4-MUH) turned out to be 2.5 µM.

`CCOC(=O)c1c(-c2ccc(F)cc2)oc2cc(O)cc(CCNCC(O)CO)c12` (stereo not drawn) [compound 79]: the IC50 in experiment [1] (Pks13-TE, 20 μM 4-MUH) was more than 20 µM.

As to `CNC(=O)c1c(-c2ccccc2)oc2ccc(O)c(CCN3CCC(CCO)CC3)c12` [compound 158], the IC50 in experiment [1] (Pks13-TE, 20 μM 4-MUH) was found to be 20 µM.

Turning to `CNC(=O)c1c(-c2ccccc2)oc2cc(O)cc(CNC3CCOCC3)c12` [compound 95], the MIC with Mtb strain mc^27000 (setting [4]) stood at 8 µM (≈ 3.04 µg/mL).

For `CCOC(=O)c1c(-c2ccccc2)oc2ccc(O)c(CCCO)c12` [compound 107], in the experiment on Mtb strain mc^27000 (setting [4]), the MIC was more than 20 µM.

With `CCOC(=O)c1c(-c2ccccc2)oc2ccc(O)c(CCCCN3CCC3)c12` [compound 215], the MIC in the experiment on Mtb strain mc^27000 (setting [3]) is listed as less than 0.08 µM.

`CCOC(=O)c1c(-c2ccccc2)oc2ccc(O)c(CCCN3CC(CO)C3)c12` [compound 198]: the IC50 in experiment [1] (Pks13-TE, 20 μM 4-MUH) is 5 µM.

In the case of `CCOC(=O)c1c(-c2ccc(F)cc2)oc2cc(O)cc(CCNC(=O)OCc3ccccc3)c12` [compound 243], the IC50 in experiment [1] (Pks13-TE, 20 μM 4-MUH) is more than 40 µM.

For `CNC(=O)c1c(-c2ccnc(OC)c2)oc2cc(O)cc(CN3CCCCC3)c12` [compound 87], in the experiment on Mtb strain mc^27000 (setting [4]), the MIC was determined as 3.3 µM (≈ 1.31 µg/mL).

On to `CNC(=O)c1c(-c2ccnc(O)c2)oc2cc(O)cc(CN3CCCCC3)c12` [compound 85], for which the MIC in the experiment with Mtb strain mc^27000 (setting [4]) was more than 10 µM.

Regarding `CCOC(=O)c1c(-c2ccccc2)oc2cc(CN3CCCCC3)cc(O)c12` [compound 36], the MIC in the experiment on Mtb strain mc^27000 (setting [4]) worked out at 40 µM (≈ 15.2 µg/mL).

For `Cc1nc2c(CN3CCC(C)CC3)c(O)ccc2[nH]1` [compound 9], in experiment [1] (Pks13-TE, 20 μM 4-MUH), the IC50 was determined as 10 µM.

Consider `CNC(=O)c1c(-c2ccccc2)oc2ccc(O)c(CCN[C@H](C)Cc3cnc[nH]3)c12` [compound 260], for which the IC50 in experiment [1] (Pks13-TE, 20 μM 4-MUH) was 4 µM.

As for `CCOC(=O)c1c(-c2ccccc2)oc2ccc(O)c(CCCN3CC(O)C3)c12` [compound 197], the IC50 in experiment [1] (Pks13-TE, 20 μM 4-MUH) amounted to 7.5 µM.

As to `CCOC(=O)c1c(-c2ccc(F)cc2)oc2cc(O)cc(CCNC(CO)CO)c12` [compound 78], the IC50 in experiment [1] (Pks13-TE, 20 μM 4-MUH) was determined as 13 µM.

As to `CCOC(=O)c1c(-c2ccccc2)oc2ccc(O)c(CCCN3CCCC3CCC(=O)NC)c12` (stereo not drawn) [compound 184], in experiment [1] (Pks13-TE, 20 μM 4-MUH), the IC50 was more than 10 µM.

Consider `CCOC(=O)c1c(-c2ccccc2)oc2ccc(O)c(CN3CCC(C)CC3)c12` [compound 1], for which the MIC in the experiment on Mtb strain mc^27000 (setting [4]) amounted to 2.3 ± 0.2 µM (≈ 0.905 µg/mL); in the experiment on Mtb strain mc^27000 (Mycobacterium tuberculosis, […], mean ± s.d. of triplicates, NI: no inhibition, read-out: MIC), 2.3 ± 0.2 µM (≈ 0.905 µg/mL).

In the case of `CCOC(=O)c1c(-c2ccccc2)oc2ccc(O)c(CCN3CCSC3C)c12` (stereo not drawn) [compound 177], the IC50 in experiment [1] (Pks13-TE, 20 μM 4-MUH) came out at 1 µM.

Regarding `CNC(=O)c1c(-c2ccccc2)oc2ccc(O)c(CCN3CCC(CO)CC3)c12` [compound 153], in experiment [1] (Pks13-TE, 20 μM 4-MUH), the IC50 is more than 40 µM.

As to `CCOC(=O)c1c(-c2ccccc2)oc2ccc(O)c(CN3CCCCC3=O)c12` [compound 52], the IC50 in experiment [1] (Pks13-TE, 20 μM 4-MUH) was more than 20 µM.

On to `Cc1nc2c(CN3CCCC3)c(O)ccc2[nH]1` [compound 111], for which, in experiment [1] (Pks13-TE, 20 μM 4-MUH), the IC50 came to 10 µM.

For `CN(C)CCc1c(O)ccc2oc(-c3ccc(O)cc3)c(C(=O)N(C)C)c12` [compound 210], the IC50 in experiment [1] (Pks13-TE, 20 μM 4-MUH) amounted to 12 µM.

In the case of `CNC(=O)c1c(-c2ccccc2)oc2ccc(O)c(CCNC3CCC3)c12` [compound 147], in experiment [1] (Pks13-TE, 20 μM 4-MUH), the IC50 is 3.5 µM.

As to `CNC(=O)c1c(-c2ccccc2)oc2ccc(O)c(CCCN3CCCC4(CC(=O)C4)C3)c12` [compound 194], the IC50 in experiment [1] (Pks13-TE, 20 μM 4-MUH) was more than 40 µM.

In the case of `CCOC(=O)c1c(-c2ccc(F)cc2)oc2cc(O)cc(CCNC(=O)C3CCCN3)c12` (stereo not drawn) [compound 226], the IC50 in experiment [1] (Pks13-TE, 20 μM 4-MUH) was more than 40 µM.

For the origin of these results see US20180111913A1, “SUBSTITUTED BENZOFURAN DERIVATIVES AS NOVEL ANTIMYCOBACTERIAL AGENTS” (priority 2015, published 2018).
